Measurements taken from patent US20040224981A1, “Antibacterial methods and compositions” (priority 2003, published 2004).
Like-named read-outs stand apart in the source and are kept apart here.

Experiments:
E. faecalis = test: MIC against E. faecalis; type: cell-based
Description: The MRS inhibitor 4 alone and in combination with mupirocin (mupirocin salt and 1:1 combination) were tested against a collection of Gram-positive pathogens.
MRSi compound 5 alone and in combination with mupirocin was tested recent clinical isolates of E. faecalis (n=28) and E. faecium (n=23). Both the acetate salt and mupirocinate salts of MRSi compound 5 maintained potent activity against vancomycin-susceptible and—resistant enterococci (Tables 8, 9, and 10).

S. aureus = test: MIC against S. aureus strains and clinical isolates (broth microdilution); type: cell-based, Staphylococcus aureus
Description: were tested against a collection of clinical isolates of S. aureus including strains that were multi-resistant to mupirocin and to other agents such as gentamicin and oxacillin.
The acetate and mupirocin salts of the MRS inhibitor compound 5 were tested against a collection of both low and high-level mupirocin resistant clinical isolates of S. aureus (Table 6).
The bacterial strains were tested for susceptibility to mupirocin and MRSi compound 2 using the broth microdilution method in accordance with NCCLS guideline to determine their MICs.
Briefly, the MIC and checkerboard titration assays were performed with strains in microtiter trays with cation-supplemented Mueller-Hinton broth (Difco). Inocula were prepared by suspending growth from blood agar plates in sterile saline to a density equivalent to that of a 0.5 McFarland standard and were diluted […] to produce a final inoculum of 5×10^5 CFU/ml. The trays were incubated aerobically overnight. Standard quality control strains were included with each run. Fractional inhibitory concentrations (FICs) were calculated as the MIC of drug A or B in combination/MIC of drug A or B alone, and the FIC index was obtained by adding the two FICs. FIC indices were interpreted as synergistic if the values were ≦0.5, additive or indifferent if the values were >0.5 to 4, and antagonistic if the values were >4.0.

[1] = recent clinical isolates of E. faecalis, ALL (28)

## C=C(F)c1sc(CNCCCNc2cc(=O)c3ccccc3[nH]2)c(C)c1Br [MRSi Cmpd 5 mupirocinate, N-(4-bromo-5-(1-fluorovinyl)-3-methylthiophen-2-ylmethyl)-N′(1H-quinolin-4-one)propane-1,3-diamine Mupirocinate]
E. faecalis; E. faecalis, Van-R(11)
  MIC90: 0.03 µg/mL
E. faecalis; E. faecalis, Van-S (16)
  MIC90: 0.03 µg/mL
E. faecalis; [1]
  MIC90: 0.03 µg/mL
  Mode (MIC): 0.03 µg/mL

## Gentamicin
S. aureus; S. aureus 10-420 (LL Mup. Rest.)
  MIC: 64 µg/mL
S. aureus; S. aureus 14-354 (LL Mup. Rest.)
  MIC: >64 µg/mL
S. aureus; S. aureus 25-670 (HL Mup. Rest.)
  MIC: >64 µg/mL
S. aureus; S. aureus 31-1334 (LL Mup Rest.)
  MIC: 64 µg/mL
S. aureus; S. aureus 36-1298 (LL Mup. Rest.)
  MIC: 0.5 µg/mL
S. aureus; S. aureus 87-2797 (HL Mup. Rest.)
  MIC: 0.25 µg/mL
S. aureus; S. aureus 87-2797 (Mup. Susc.)
  MIC: 0.25 µg/mL
S. aureus; S. aureus 101-100 (Mup. Susc.)
  MIC: 0.12 µg/mL
S. aureus; S. aureus ATCC 43300 (ORSA)
  MIC: 4 µg/mL
S. aureus; S. aureus LZ1 (HL Mup rest.)
  MIC: 0.5 µg/mL
S. aureus; S. aureus LZ6 (HL Mup rest.)
  MIC: 0.25 µg/mL
S. aureus; S. aureus LZ8 (LL Mup. Rest.)
  MIC: 64 µg/mL
S. aureus; S. aureus LZ9
  MIC: 64 µg/mL
S. aureus; S. aureus LZ10
  MIC: 64 µg/mL
S. aureus; S. aureus Miles Hall
  MIC: 0.5 µg/mL
S. aureus; S. aureus NRS1 (VISA)
  MIC: >64 µg/mL
S. aureus; S. aureus NRS107 (HL Mup rest.)
  MIC: 0.25 µg/mL
S. aureus; S. aureus Oxford
  MIC: 0.5 µg/mL
S. aureus; all S. aureus strains of Table 1
  MIC90: >64 µg/mL

## Cc1onc(-c2ccccc2)c1C(=O)N[C@@H]1C(=O)N2[C@@H]1SC(C)(C)[C@@H]2C(=O)O [Oxacillin]
S. aureus; Staphylococcus aureus, ATCC43300, S. aureus ATCC 43300 (ORSA), read-out: MIC
  MIC: 4 µg/mL
S. aureus; Staphylococcus aureus, NRS 1 / VISA, S. aureus NRS1 (VISA), read-out: MIC
  MIC: > 64 µg/mL
S. aureus; Staphylococcus aureus, NRS 1 / VISA, VISA, S. aureus NRS1 (Mu50), read-out: MIC
  MIC: > 64 µg/mL
S. aureus; Staphylococcus aureus, NRS 3 / VISA, VISA, S. aureus NRS3 (HIP5827), read-out: MIC
  MIC: > 64 µg/mL
S. aureus; Staphylococcus aureus, NRS 4 / VISA, VISA, S. aureus NRS4 (HIP5836), read-out: MIC
  MIC: 64 µg/mL
S. aureus; Staphylococcus aureus, NRS 18 / VISA, VISA, S. aureus NRS18 (HIP06854), read-out: MIC
  MIC: 2 µg/mL
S. aureus; Staphylococcus aureus, NRS 24 / VISA, VISA, S. aureus NRS24 (HIP09143), read-out: MIC
  MIC: 32 µg/mL
S. aureus; Staphylococcus aureus, NRS 49 / VISA, VISA, S. aureus NRS49 (Korea), read-out: MIC
  MIC: > 64 µg/mL
S. aureus; Staphylococcus aureus, NRS54, Table 6, high-level mupirocin-resistant S. aureus NRS54, read-out: MIC
  MIC: > 64 µg/mL
S. aureus; Staphylococcus aureus, NRS 54 / VISA, VISA, S. aureus NRS54 (Brazil), read-out: MIC
  MIC: > 64 µg/mL
S. aureus; Staphylococcus aureus, NRS 56 / VISA, VISA, S. aureus NRS56 (Brazil), read-out: MIC
  MIC: > 64 µg/mL
S. aureus; Staphylococcus aureus, NRS107, S. aureus NRS107 (HL Mup rest.), read-out: MIC
  MIC: 0.12 µg/mL
S. aureus; Staphylococcus aureus, NRS107, Table 6, high-level mupirocin-resistant S. aureus NRS107, read-out: MIC
  MIC: 0.12 µg/mL
S. aureus; Staphylococcus aureus, NRS127, Table 6, low-level mupirocin-resistant S. aureus NRS127, read-out: MIC
  MIC: 64 µg/mL
S. aureus; Staphylococcus aureus, S. aureus 10-420 (LL Mup. Rest.), read-out: MIC
  MIC: 16 µg/mL
S. aureus; Staphylococcus aureus, S. aureus 14-354 (LL Mup. Rest.), read-out: MIC
  MIC: > 64 µg/mL
S. aureus; Staphylococcus aureus, S. aureus 25-670 (HL Mup. Rest.), read-out: MIC
  MIC: > 64 µg/mL
S. aureus; Staphylococcus aureus, S. aureus 31-1334 (LL Mup Rest.), read-out: MIC
  MIC: > 64 µg/mL
S. aureus; Staphylococcus aureus, S. aureus 36-1298 (LL Mup. Rest.), read-out: MIC
  MIC: 0.25 µg/mL
S. aureus; Staphylococcus aureus, S. aureus 87-2797 (HL Mup. Rest.), read-out: MIC
  MIC: > 64 µg/mL
S. aureus; Staphylococcus aureus, S. aureus 87-2797 (Mup. Susc.), read-out: MIC
  MIC: > 64 µg/mL
S. aureus; Staphylococcus aureus, S. aureus 101-100 (Mup. Susc.), read-out: MIC
  MIC: 16 µg/mL
S. aureus; Staphylococcus aureus, S. aureus LZ1 (HL Mup rest.), read-out: MIC
  MIC: > 64 µg/mL
S. aureus; Staphylococcus aureus, S. aureus LZ6 (HL Mup rest.), read-out: MIC
  MIC: > 64 µg/mL
S. aureus; Staphylococcus aureus, S. aureus LZ8 (LL Mup. Rest.), read-out: MIC
  MIC: > 64 µg/mL
S. aureus; Staphylococcus aureus, S. aureus LZ9, read-out: MIC
  MIC: > 64 µg/mL
S. aureus; Staphylococcus aureus, S. aureus LZ10, read-out: MIC
  MIC: > 64 µg/mL
S. aureus; Staphylococcus aureus, S. aureus Miles Hall, read-out: MIC
  MIC: 0.25 µg/mL
S. aureus; Staphylococcus aureus, S. aureus Oxford, read-out: MIC
  MIC: 0.015 µg/mL
S. aureus; Staphylococcus aureus, Table 6, S. aureus (mupirocin-susceptible) 010-100, read-out: MIC
  MIC: 8 µg/mL
S. aureus; Staphylococcus aureus, Table 6, S. aureus (mupirocin-susceptible) 087-2789, read-out: MIC
  MIC: > 64 µg/mL
S. aureus; Staphylococcus aureus, Table 6, S. aureus (mupirocin-susceptible) LZ9, read-out: MIC
  MIC: > 64 µg/mL
S. aureus; Staphylococcus aureus, Table 6, S. aureus (mupirocin-susceptible) LZ10, read-out: MIC
  MIC: > 64 µg/mL
S. aureus; Staphylococcus aureus, Table 6, high-level mupirocin-resistant S. aureus 010-420, read-out: MIC
  MIC: 8 µg/mL
S. aureus; Staphylococcus aureus, Table 6, high-level mupirocin-resistant S. aureus 25-670, read-out: MIC
  MIC: > 64 µg/mL
S. aureus; Staphylococcus aureus, Table 6, high-level mupirocin-resistant S. aureus 87-2797, read-out: MIC
  MIC: > 64 µg/mL
S. aureus; Staphylococcus aureus, Table 6, high-level mupirocin-resistant S. aureus 1079101, read-out: MIC
  MIC: 0.25 µg/mL
S. aureus; Staphylococcus aureus, Table 6, high-level mupirocin-resistant S. aureus LZ1, read-out: MIC
  MIC: > 64 µg/mL
S. aureus; Staphylococcus aureus, Table 6, high-level mupirocin-resistant S. aureus LZ6, read-out: MIC
  MIC: > 64 µg/mL
S. aureus; Staphylococcus aureus, Table 6, low-level mupirocin-resistant S. aureus 014-354, read-out: MIC
  MIC: > 64 µg/mL
S. aureus; Staphylococcus aureus, Table 6, low-level mupirocin-resistant S. aureus 031-1334, read-out: MIC
  MIC: 64 µg/mL
S. aureus; Staphylococcus aureus, Table 6, low-level mupirocin-resistant S. aureus 036-1298, read-out: MIC
  MIC: 8 µg/mL
S. aureus; Staphylococcus aureus, Table 6, low-level mupirocin-resistant S. aureus 1081148, read-out: MIC
  MIC: 8 µg/mL
S. aureus; Staphylococcus aureus, Table 6, low-level mupirocin-resistant S. aureus LZ8, read-out: MIC
  MIC: > 64 µg/mL
S. aureus; Staphylococcus aureus, Table 6, low-level mupirocin-resistant S. aureus Miles Hall, read-out: MIC
  MIC: 0.12 µg/mL
S. aureus; Staphylococcus aureus, all S. aureus isolates of Table 6, read-out: MIC50
  MIC50: > 64 µg/mL
S. aureus; Staphylococcus aureus, all S. aureus isolates of Table 6, read-out: MIC90
  MIC90: > 64 µg/mL
S. aureus; Staphylococcus aureus, all S. aureus strains of Table 1, read-out: MIC 90
  MIC90: > 64 µg/mL
